Experimental data: patent publication US20060073121A1, “Spray formulation for pungency enhancement in Capsicum” (priority 2004, published 2006)

Tested on: Capsicum frutescens Mill
Test: Spray of abiotic elicitors to flowers of field-grown plants; HPLC of phenyl propanoid intermediates and capsaicinoids in harvested fruits
Format: in vivo
Excerpt: The seedlings of Capsicum frutescens Mill were raised in soil bed. The seeds of C. frutescens were collected from wild from BR Hills, […]. The 2 months old seedling plants were transplanted to the soil and grown under controlled conditions to avoid cross-pollination after the onset of flowering. The plants were established well 2 months after transplantation and started to flower by 90 days with proper agronomic practices with regard to irrigation, fertilizer application, weeding and care from major pests and diseases. The abiotic elicitor (Methyl Jasmonate) was purchased from Duchefa Pvt.LTD. Methyl Jasmonate stock solution was prepared and later used at different concentrations (1 mM, 2.5 mM and 5 mM) for spraying to the whole plant containing flowers, completely opened flowers, and braches containing flowers. The flowers of C. frutescens were sprayed with water, which was taken as control. […] The extracted samples were centrifuged at 4000 rpm for 10 minutes. The samples were subjected to High Performance Liquid Chromatography for quantification of phenyl proponoid intermediates and major Capsaicinoids. […] The detection was at 236 nm and flow rate was maintained at 1 ml/min. […] The reagent used was of HPLC grade. The intermediates of phenyl proponoid pathway (Phenylalanine, Cinnamic acid, Coumaric acid, Caffeic acid, Ferulic acid and Vanillylamine) and two major Capsaicinoids (Capsaicin and Dihydrocapsaicin) were purchased from Sigma Co. […] Standard deviation of samples was calculated according to Tukey's method. The seedlings of Capsicum frutescens Mill were raised in soil bed. The seeds of C. frutescens were collected from BR. Hills, […]. The 2 months old seedling plants were transplanted to the soil and grown under controlled conditions to avoid cross-pollination after the onset of flowering. The plants were established well two months after transplantation and started to flower by 90 days with proper agronomic practices with regard to irrigation, fertilizer application, weeding and care from major pests and diseases. […] USA. […] The flowers of C. frutescens were sprayed with water, which was taken as control. […] The extracted samples were centrifuged at 4000 rpm for 10 minutes. The samples were subjected to High Performance Liquid Chromatography for quantification of phenyl proponoid intermediates and major Capsaicinoids. […] The detection was at 236nm and flow rate was maintained at 1 ml/min. […] The reagent used was of HPLC grade. The intermediates of phenyl propanoid pathway (Phenylalanine, Cinnamic acid, Coumaric acid, Caffeic acid, Ferulic acid and Vanillylamine) and two major Capsaicinoids (Capsaicin and Dihydrocapsaicin) were purchased from Sigma Co. […] Standard deviation of samples was calculated according to Tukey's method.

[1] = fruits 25 days after anthesis, 1 mM sprayed
[2] = fruits 25 days after anthesis, 2.5 mM sprayed
[3] = fruits 25 days after anthesis, 5 mM sprayed
[4] = fruits 30 days after anthesis, 1 mM sprayed
[5] = fruits 30 days after anthesis, 2.5 mM sprayed
[6] = fruits 30 days after anthesis, 5 mM sprayed
[7] = fruits 35 days after anthesis, 1 mM sprayed
[8] = fruits 35 days after anthesis, 2.5 mM sprayed
[9] = fruits 35 days after anthesis, 5 mM sprayed
[10] = fruits 40 days after anthesis, 1 mM sprayed
[11] = fruits 40 days after anthesis, 2.5 mM sprayed
[12] = fruits 40 days after anthesis, 5 mM sprayed

SMILES: CC/C=C\CC1C(=O)CCC1CC(=O)OC (centres unmarked) [Methyl Jasmonate]
- Caffeic Acid level [1]: 3 ± 0.9 µM
- Capsaicin level [1]: 17 ± 1.8 µM
- Cinnamic Acid level [1]: 10 ± 1.0 µM
- Coumaric Acid level [1]: 44 ± 3.2 µM
- Dihydrocapsaicin level [1]: 5 ± 0.8 µM
- Ferulic Acid level [1]: 33 ± 1.9 µM
- Phenylalanine level [1]: 388 ± 8.2 µM
- Vanillylamine level [1]: 49 ± 3.4 µM
- Caffeic Acid level [2]: 3 ± 0.8 µM
- Capsaicin level [2]: 18 ± 1.2 µM
- Cinnamic Acid level [2]: 11 ± 0.8 µM
- Coumaric Acid level [2]: 45 ± 3.8 µM
- Dihydrocapsaicin level [2]: 6 ± 0.5 µM
- Ferulic Acid level [2]: 49 ± 2.5 µM
- Phenylalanine level [2]: 424 ± 9.2 µM
- Vanillylamine level [2]: 63 ± 4.5 µM
- Caffeic Acid level [3]: 3 ± 0.6 µM
- Capsaicin level [3]: 16 ± 1.4 µM
- Cinnamic Acid level [3]: 9 ± 0.8 µM
- Coumaric Acid level [3]: 42 ± 3.9 µM
- Dihydrocapsaicin level [3]: 7 ± 0.8 µM
- Ferulic Acid level [3]: 48 ± 3.4 µM
- Phenylalanine level [3]: 391 ± 10.0 µM
- Vanillylamine level [3]: 42 ± 2.9 µM
- Caffeic Acid level [4]: 4 ± 1.1 µM
- Capsaicin level [4]: 41 ± 3.5 µM
- Cinnamic Acid level [4]: 12 ± 0.9 µM
- Coumaric Acid level [4]: 38 ± 3.4 µM
- Dihydrocapsaicin level [4]: 13 ± 1.0 µM
- Ferulic Acid level [4]: 68 ± 5.4 µM
- Phenylalanine level [4]: 563 ± 12.2 µM
- Vanillylamine level [4]: 61 ± 5.4 µM
- Caffeic Acid level [5]: 12 ± 1.2 µM
- Capsaicin level [5]: 48 ± 3.6 µM
- Cinnamic Acid level [5]: 35 ± 2.1 µM
- Coumaric Acid level [5]: 47 ± 4.2 µM
- Dihydrocapsaicin level [5]: 14 ± 0.9 µM
- Ferulic Acid level [5]: 80 ± 4.5 µM
- Phenylalanine level [5]: 649 ± 8.7 µM
- Vanillylamine level [5]: 96 ± 6.9 µM
- Caffeic Acid level [6]: 10 ± 0.9 µM
- Capsaicin level [6]: 48 ± 6.8 µM
- Cinnamic Acid level [6]: 27 ± 1.8 µM
- Coumaric Acid level [6]: 45 ± 3.8 µM
- Dihydrocapsaicin level [6]: 13 ± 0.7 µM
- Ferulic Acid level [6]: 73 ± 4.5 µM
- Phenylalanine level [6]: 627 ± 7.4 µM
- Vanillylamine level [6]: 58 ± 5.1 µM
- Caffeic Acid level [7]: 12 ± 1.2 µM
- Capsaicin level [7]: 36 ± 3.8 µM
- Cinnamic Acid level [7]: 23 ± 1.5 µM
- Coumaric Acid level [7]: 44 ± 4.2 µM
- Dihydrocapsaicin level [7]: 15 ± 1.2 µM
- Ferulic Acid level [7]: 122 ± 8 µM
- Phenylalanine level [7]: 879 ± 5.9 µM
- Vanillylamine level [7]: 111 ± 10.8 µM
- Caffeic Acid level [8]: 37 ± 3.2 µM
- Cinnamic Acid level [8]: 68 ± 4.5 µM
- Coumaric Acid level [8]: 84 ± 4.1 µM
- Dihydrocapsaicin level [8]: 19 ± 1.3 µM
- Ferulic Acid level [8]: 150 ± 8 µM
- Phenylalanine level [8]: 1052 ± 11 µM
- Vanillylamine level [8]: 107 ± 10.2 µM
- Caffeic Acid level [9]: 20 ± 1.2 µM
- Capsaicin level [9]: 35 ± 2.9 µM
- Cinnamic Acid level [9]: 36 ± 3.2 µM
- Coumaric Acid level [9]: 59 ± 3.8 µM
- Dihydrocapsaicin level [9]: 12 ± 1.0 µM
- Ferulic Acid level [9]: 121 ± 12 µM
- Phenylalanine level [9]: 921 ± 8.9 µM
- Vanillylamine level [9]: 73 ± 7.1 µM
- Caffeic Acid level [10]: 9 ± 0.8 µM
- Capsaicin level [10]: 33 ± 2.4 µM
- Cinnamic Acid level [10]: 14 ± 1.2 µM
- Coumaric Acid level [10]: 39 ± 1.9 µM
- Dihydrocapsaicin level [10]: 15 ± 1.2 µM
- Ferulic Acid level [10]: 107 ± 11 µM
- Phenylalanine level [10]: 516 ± 8.4 µM
- Vanillylamine level [10]: 78 ± 6.8 µM
- Caffeic Acid level [11]: 15 ± 1.2 µM
- Capsaicin level [11]: 42 ± 3.2 µM
- Cinnamic Acid level [11]: 23 ± 1.9 µM
- Coumaric Acid level [11]: 73 ± 2.4 µM
- Dihydrocapsaicin level [11]: 18 ± 1.4 µM
- Ferulic Acid level [11]: 114 ± 12 µM
- Phenylalanine level [11]: 584 ± 9.2 µM
- Vanillylamine level [11]: 98 ± 5.8 µM
- Caffeic Acid level [12]: 13 ± 1.3 µM
- Capsaicin level [12]: 28 ± 3.8 µM
- Cinnamic Acid level [12]: 20 ± 1.5 µM
- Coumaric Acid level [12]: 44 ± 4.1 µM
- Dihydrocapsaicin level [12]: 11 ± 1.3 µM
- Ferulic Acid level [12]: 67 ± 4.5 µM
- Phenylalanine level [12]: 547 ± 7.4 µM
- Vanillylamine level [12]: 61 ± 5.1 µM
